Measurements from US20260035364A1, “BICYCLIC TETRAHYDROTHIAZEPINE DERIVATIVES” (Hoffmann-La Roche Inc., priority 2022, published 2026).
Like-named read-outs stand apart in the source and are kept apart here.

Assays:
primary human T-cells = test: T-cell proliferation assay (CellTiter-Glo); type: cell-based; details: CD3 condition; for Emax: read-out: Emax proliferation (% activation); for EC50: proliferation after 5 days, CellTiter-Glo, read-out: Tcell Proliferation CD3 EC50
Description: Expanded primary human T-cells are thawed and cultured in RPMI 1640 (Gibco, #61870-010)+5% human serum (HS, Sigma, #H3667)+1 mM Sodium Pyruvate (Gibco, #11360-039)+50 μM 2-mercaptoethanol (Gibco, #31350-010) and 1× Pen-Strep (Life Technologies, #15140122) medium at density of 2 Mio/ml for 3 hours in 5% CO2, 37° C. and 95% humidity. For coating of plates, PBS++ only or PBS++ with CD3 antibody (concentration depending on donor and determined by CD3 titrations) is added 100 μl/well to Poly-D Lysine coated 96-well plates. Plates are sealed and incubated at room temperature for 3 hours on a table-top rocking platform. After incubation, plates are washed once with PBS−− and filled with 40 μl/well culture medium only. Compounds are then added (see next section) to medium only plates. After 3 hours of culturing the T-cells, cells are filtered through a cell strainer (Miltenyi Biotech, #130-041-407), counted again and concentration is adjusted to 1.25 Mio/ml.
Cells are then seeded 80 μl/well to the 40 µl/well including dispensed compounds according to plate layout. By adding cells, compounds are further diluted 1:3, and resulting in 100k cells/120 µl/well. After 48 hours 40 μl of supernatant is collected carefully from the top while not disturbing the cells. Cells are assessed for proliferation 5 days later by measuring […] using CellTiterGlo (Promega).
Compounds were added in a 5 or 6 pt dose response with the Tecan D300e Digital Dispenser, all conditions 3 times more concentrated than the end-concentration, since cells are added afterwards (80p1 cells to 40p1 prepared medium with treatment). The DR was starting at 20 μM or 10 μM final top concentration and a dilution factor of 3.333. The positive control was the reference compound A1 that was added in a dose response as well, additionally to 3 wells of only 20 μM representing the positive stimulator control. All wells were normalized with DMSO to a final concentration of 0.6% (0.2% end-concentration).
After 5 days, for detection of ATP which is directly proportional to the number of cells present per well, the CellTiter-Glo® 2.0 Reagent is used. After visual control for toxicity or precipitations of the tested compounds, the plates are equilibrated to room temperature for 45 minutes. CellTiter-Glo® 2.0 Reagent is equilibrated to room temperature as well. After equilibration, an equal amount of CellTiter-Glo reagent is added to the cells (80 µl/well) with an electronic multichannel pipette. Plates are placed on a rocking platform for 15 minutes at room temperature. After incubation, the bottom of the plates is sealed with backing tape. Luminescence is measured with PHERAstar FSX (interval time 0.5 sec, gain 3000, focal height 15 mm) and exported as CSV file for analysis in Genedata screener.
Calculations and Data Reporting CD3 and PBS plates were analysed separately in Genedata Screener using Roche Normalization PCT_POS_CTRL with DMSO set as Neutral Control and 20 μM of the reference compound A1 set as Stimulator Control/100%.
For CD3 conditions EC50 and Emax of the fitted sigmoidal curve were reported. If no curve could be fitted, the EC50 was reported as blank field and the Emax was based on individual data points. […] Compounds which activate unstimulated cells (see IL2 measurements) or compounds which negatively affected viability were flagged.

DGKalpha = DGKalpha (Homo sapiens, UniProt P23743); test: In vitro DGK inhibition assay (ADP-Glo, liposomes), DGKalpha; type: biochemical; set-up: hDGKalpha(1-735)-N-His; His (N); made in house; host or cells: Sf21 insect cells (baculovirus); details: 4 nM DGK α, 25 μM ATP, 125 uM DLG in liposomes, 1 hour reaction
Description: DGK α and ζ kinases use ATP to phosphorylate the substrate 1,2-dilauroyl-sn-glycerol (DLG, incorporated in the liposomes). ATP is converted to ADP as a result of this enzymatic reaction. After the kinase reaction, an ATP-depletion reagent is added to terminate the kinase reaction and deplete any remaining ATP, leaving only ADP. Second, a detection reagent is added to simultaneously convert ADP to ATP and allow the newly synthesized ATP to be converted to light using a coupled luciferase/luciferin reaction.
Full length DGKA and Z were expressed in Sf21 insect cells by infecting the cells with the baculovirus stock at MOI of 2. Purification of both enzymes was performed as previously described by Takahashi et al., PeerJ, 2018 (Takahashi, D.; Sakane, F. Expression and purification of human diacylglycerol kinase alpha from baculovirus-infected insect cells for structural studies. PeerJ 2018, 6, No. e5449).
A concentrated liposome solution was prepared in assay buffer without DTT and BSA: 2 mM of DLG in 21 mM of total liposome (2 mM DLG/8 mM PS/11 mM PC). The reaction mixtures contain the assay buffer with a final DLG concentration of 125 uM ATP concentrations of 25 μM (for DGKA assay) or 50 μM (for DGKZ assay). The reactions were started by addition of DGK a and (kinases at 4 nM and 2 nM final concentrations, respectively. After 1 hour reaction, the amount of ADP formed was detected with the ADP-Glo kinase assay (Promega) according to the manufacturer instructions. Compounds were added in 11-points dose response, starting at […], 1:3 dilutions, with a final DMSO concentration of 2%. The multidrop combi was used as a liquid handler and luminescence was read with 0.5 s by the envision reader (PE).

[1] = Homo sapiens, T-cell, 120 h, 5 days, 20 μM reference compound A1 = 100%

DGKalpha, sequence (P23743 whole entry): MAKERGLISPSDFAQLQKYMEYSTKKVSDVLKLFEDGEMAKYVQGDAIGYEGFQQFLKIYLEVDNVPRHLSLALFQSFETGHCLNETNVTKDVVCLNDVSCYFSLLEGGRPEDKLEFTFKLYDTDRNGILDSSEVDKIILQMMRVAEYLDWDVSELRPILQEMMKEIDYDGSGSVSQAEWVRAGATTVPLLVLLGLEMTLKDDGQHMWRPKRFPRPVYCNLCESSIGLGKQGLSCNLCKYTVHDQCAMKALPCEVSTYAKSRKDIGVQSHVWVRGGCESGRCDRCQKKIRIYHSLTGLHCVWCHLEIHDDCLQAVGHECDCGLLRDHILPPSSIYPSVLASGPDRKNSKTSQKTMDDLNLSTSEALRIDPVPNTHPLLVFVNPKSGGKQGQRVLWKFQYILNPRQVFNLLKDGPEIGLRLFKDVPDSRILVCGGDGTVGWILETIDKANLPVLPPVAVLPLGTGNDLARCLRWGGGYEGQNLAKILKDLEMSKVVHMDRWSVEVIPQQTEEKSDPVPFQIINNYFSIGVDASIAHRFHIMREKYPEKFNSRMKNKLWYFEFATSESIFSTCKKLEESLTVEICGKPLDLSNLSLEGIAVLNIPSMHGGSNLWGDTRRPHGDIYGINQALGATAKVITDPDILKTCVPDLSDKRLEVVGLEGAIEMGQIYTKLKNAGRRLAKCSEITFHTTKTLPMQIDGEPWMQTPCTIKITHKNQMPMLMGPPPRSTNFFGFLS

IC50 (DGKalpha)	Compound	Emax (primary human T-cells; [1])	EC50 (primary human T-cells; Homo sapiens, T-cell, 120 h)	Emax proliferation (% activation) (primary human T-cells; 5 days, 20 μM reference compound A1 = 100%)	EC50 (primary human T-cells)
3800 nM	CC(C)(c1nnc(-c2ccc3c(c2)N(Cc2ccc(Oc4cccc(Br)c4)cc2)C(=O)[C@@H](N)CS3(=O)=O)o1)S(C)(=O)=O [Example 60, (3R)-3-amino-5-[[4-(3-bromophenoxy)phenyl]methyl]-7-[5-(1-methyl-1-methylsulfonyl-ethyl)-1,3,4-oxadiazol-2-yl]-1,1-dioxo-2,3-dihydro-1λ6,5-benzothiazepin-4-one]	119%	660 nM		
3080 nM	CC(C)(c1nnc(-c2ccc3c(c2)N(Cc2ccc(OCCC(F)(F)F)cc2)C(=O)[C@@H](N)CS3(=O)=O)o1)S(C)(=O)=O [Example 23, (3R)-3-amino-7-[5-(1-methyl-1-methylsulfonyl-ethyl)-1,3,4-oxadiazol-2-yl]-1,1-dioxo-5-[[4-(3,3,3-trifluoropropoxy)phenyl]methyl]-2,3-dihydro-1λ6,5-benzothiazepin-4-one]	79%	4540 nM		
1810 nM	CCC(CC)Oc1ccc(CN2C(=O)[C@@H](N)CS(=O)(=O)c3ccc(-c4nnc(C(C)(C)S(C)(=O)=O)o4)cc32)cc1 [Example 19, (3R)-3-amino-5-[[4-(1-ethylpropoxy)phenyl]methyl]-7-[5-(1-methyl-1-methylsulfonyl-ethyl)-1,3,4-oxadiazol-2-yl]-1,1-dioxo-2,3-dihydro-1λ6,5-benzothiazepin-4-one]	78%	2760 nM		
274 nM	CN(Cc1ccccc1)c1ccc(CN2C(=O)[C@@H](N)CS(=O)(=O)c3ccc(-c4nnc(C(C)(C)S(C)(=O)=O)o4)cc32)cc1 [Example 15, (3R)-3-amino-5-[[4-[benzyl(methyl)amino]phenyl]methyl]-7-[5-(1-methyl-1-methylsulfonyl-ethyl)-1,3,4-oxadiazol-2-yl]-1,1-dioxo-2,3-dihydro-1λ6,5-benzothiazepin-4-one]	85%	2670 nM		
1100 nM	CC(C)(c1nnc(-c2ccc3c(c2)N(Cc2ccc(Oc4cccc(OC(F)F)c4)cc2)C(=O)[C@@H](N)CS3(=O)=O)o1)S(C)(=O)=O [Example 47, (3R)-3-amino-5-[[4-[3-(difluoromethoxy)phenoxy]phenyl]methyl]-7-[5-(1-methyl-1-methylsulfonyl-ethyl)-1,3,4-oxadiazol-2-yl]-1,1-dioxo-2,3-dihydro-1λ6,5-benzothiazepin-4-one]	156%	351 nM		
> 62500 nM	COc1cccc(-c2ccc(CN3C(=O)[C@@H](N)CS(=O)(=O)c4ccc(-c5nnc(C(C)(C)S(C)(=O)=O)o5)cc43)cc2)c1 [Example 22, (3R)-3-amino-5-[[4-(3-methoxyphenyl)phenyl]methyl]-7-[5-(1-methyl-1-methylsulfonyl-ethyl)-1,3,4-oxadiazol-2-yl]-1,1-dioxo-2,3-dihydro-1λ6,5-benzothiazepin-4-one]	47%	> 10000 nM		

More lines, now with the values behind:

Compound	IC50 (DGKalpha)	Emax (primary human T-cells; [1])	EC50 (primary human T-cells; Homo sapiens, T-cell, 120 h)	Emax proliferation (% activation) (primary human T-cells; 5 days, 20 μM reference compound A1 = 100%)	EC50 (primary human T-cells)
CC(C)(c1nnc(-c2cc3c(cc2F)S(=O)(=O)C[C@H](N)C(=O)N3Cc2ccc(OCC(F)(F)F)cc2)o1)S(C)(=O)=O [Example 24, (3R)-3-amino-8-fluoro-7-[5-(1-methyl-1-methylsulfonyl-ethyl)-1,3,4-oxadiazol-2-yl]-1,1-dioxo-5-[[4-(2,2,2-trifluoroethoxy)phenyl]methyl]-2,3-dihydro-1λ6,5-benzothiazepin-4-one]	431 nM	104%	475 nM		
CS(=O)(=O)C1(c2nnc(-c3ccc4c(c3)N(Cc3ccc(Oc5ccccc5)cc3)C(=O)[C@@H](N)CS4(=O)=O)o2)CCC1 [Example 68, (3R)-3-amino-7-[5-(1-methylsulfonylcyclobutyl)-1,3,4-oxadiazol-2-yl]-1,1-dioxo-5-[(4-phenoxyphenyl)methyl]-2,3-dihydro-1λ6,5-benzothiazepin-4-one]	> 62500 nM	83%	2290 nM		
CC(C)(c1nc(-c2cc3c(cc2F)S(=O)(=O)C[C@H](N)C(=O)N3Cc2ccc(Cl)cc2)no1)S(C)(=O)=O [Example 43, (3R)-3-amino-5-[(4-chlorophenyl)methyl]-8-fluoro-7-[5-(1-methyl-1-methylsulfonyl-ethyl)-1,2,4-oxadiazol-3-yl]-1,1-dioxo-2,3-dihydro-1λ6,5-benzothiazepin-4-one]	640 nM	153%	75 nM		
CC(C)(c1nc(-c2cc3c(cc2F)[S+]([O-])C[C@H](N)C(=O)N3Cc2ccc(Oc3ccccc3)cc2)no1)S(C)(=O)=O (stereo partly drawn) [Example 52, (3R)-3-amino-8-fluoro-7-[5-(1-methyl-1-methylsulfonyl-ethyl)-1,2,4-oxadiazol-3-yl]-1-oxo-5-[(4-phenoxyphenyl)methyl]-2,3-dihydro-1λ4,5-benzothiazepin-4-one]	1550 nM			181%	978 nM
CC(C)(c1nc(-c2cc3c(cc2F)S(=O)(=O)C[C@H](N)C(=O)N3Cc2ccc(C3CCOCC3)cc2)no1)S(C)(=O)=O [Example 53, (3R)-3-amino-8-fluoro-7-[5-(1-methyl-1-methylsulfonyl-ethyl)-1,2,4-oxadiazol-3-yl]-1,1-dioxo-5-[(4-tetrahydropyran-4-ylphenyl)methyl]-2,3-dihydro-1λ6,5-benzothiazepin-4-one]	8050 nM	167%	3190 nM		
CS(=O)(=O)Cn1nnnc1-c1cc2c(cc1F)S(=O)(=O)C[C@H](N)C(=O)N2Cc1ccc(Oc2ccccc2)cc1 [Example 55, (3R)-3-amino-8-fluoro-7-[1-(methylsulfonyl-methyl)tetrazol-5-yl]-1,1-dioxo-5-[(4-phenoxyphenyl)methyl]-2,3-dihydro-1λ6,5-benzothiazepin-4-one]	18300 nM	310%	1150 nM		
CC(C)(c1nnc(-c2cc3c(cc2F)S(=O)(=O)C[C@H](N)C(=O)N3Cc2ccc(Oc3ccccc3)cc2)o1)S(C)(=O)=O [Example 27, (3R)-3-amino-8-fluoro-7-[5-(1-methyl-1-methylsulfonyl-ethyl)-1,3,4-oxadiazol-2-yl]-1,1-dioxo-5-[(4-phenoxyphenyl)methyl]-2,3-dihydro-1λ6,5-benzothiazepin-4-one]	483 nM	136%	863 nM		
